The target in data set [1] is cytochrome P450 2E1 (CYP2E1) (Homo sapiens, UniProt P05181). As to the kind of experiment: CYP2E1 High Throughput Inhibitor Screening Kit, cDNA synthesized microsomal CYP2E1 (MFC to HFC). As to conditions: for Minimum Effective Dose: Table 3, minimum tested concentration (mg/L) × volume of human liver and intestine (3L). An excerpt: CYP2E1 High Throughput Inhibitor Screening Kit (BD Bioscience, USA) was used to screen the cytochrome P450 (CYP2E1) inhibitors from 22 Chinese medicine guiding drugs and 10 excipients and microsomal cytochrome P450 (CYP2E1) was synthesized from cDNA (BD Bioscience, USA). The principle of the screening kit is to measure the percentage of CYP2E inhibition, after adding the test sample to substrate MFC (7-Methoxy-4-trifluoromethyl coumarin) and cytochrome P450 (CYP2E1), by measuring the synthesis of standard CYP2E1 metabolite (HFC, 7-Hydroxy-4-trifluoromethyl coumarin) and use control HFC as baseline.
cytochrome P450 2E1 (CYP2E1), sequence (P05181 whole entry): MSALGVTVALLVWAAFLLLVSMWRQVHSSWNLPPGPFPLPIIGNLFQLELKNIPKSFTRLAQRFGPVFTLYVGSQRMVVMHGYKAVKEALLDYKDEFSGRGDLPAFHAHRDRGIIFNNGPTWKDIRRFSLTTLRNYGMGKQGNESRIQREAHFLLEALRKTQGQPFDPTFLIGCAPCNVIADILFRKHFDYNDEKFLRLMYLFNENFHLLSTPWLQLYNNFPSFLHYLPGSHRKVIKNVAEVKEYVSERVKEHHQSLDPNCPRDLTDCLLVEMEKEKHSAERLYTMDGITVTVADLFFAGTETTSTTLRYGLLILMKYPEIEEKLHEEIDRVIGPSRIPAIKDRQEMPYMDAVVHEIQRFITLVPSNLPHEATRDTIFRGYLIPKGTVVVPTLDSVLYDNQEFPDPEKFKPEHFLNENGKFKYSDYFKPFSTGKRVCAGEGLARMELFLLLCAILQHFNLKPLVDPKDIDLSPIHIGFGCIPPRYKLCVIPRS
a. 149 μl NADPH-Cofactor Mix and 1 μl 20 mM DDTC were added to the #1 well in a 96-well plate and mixed thoroughly,
b. Add 100 μl Cofactor/acetonitrile mix to #2 to #12 wells, and well #1 to #8 are positive control. Well #9 and 10 are control and well #11 and #12 are blank,
c. […] Preparation of Experimental Groups: a. […] Transfer 50 μl from well #1 and #2 and added to well #3 and mixed thoroughly (triplicate for each sample), 3. Initiation and Termination of the Reaction: a. The 96-well plate was incubated at 37° C. for […], b. 100 μl of Enzyme/Substrate Mix was added to every well and mixed thoroughly except the blank wells, c. The 96-well plate was incubated at 37° C. for 40 min, d. 75 μl Stop Solution was added to every well and mixed thoroughly, e. Immediately add 100 μl Enzyme/Substrate Mix to blank wells and mixed thoroughly, f. Measure with a Fluoroskan Ascent FL (Thermo Electron Corporation, Finland) with excitation at 405 nm and emission at 538 nm, 4. The fluorescence was transverse into CYP 2E1 metabolite standard (HFC) concentration (pmol) and the percentage (%) of CYP 2E1 inhibition was calculated using control as baseline by following equation: […]

Data set [2] addresses human liver microsomal cytochrome P450 2E1 (CYP2E1) (Homo sapiens, UniProt P05181). Put plainly: Human liver microsomal CYP2E1, chlorzoxazone 6-hydroxylation.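 On all read-outs here: chlorzoxazone added as substrate, 6-hydroxychlorzoxazone formation quantified by LC/MS/MS after 30 min at 37 °C with NADP+ regenerating system, compared against solvent control without test sample.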 As to conditions: for Minimum Effective Dose: Table 6, minimum tested concentration (mg/L) × volume of human liver and intestine (3 L). In general terms: Liver microsomes are a subcellular fraction often used to study metabolism.
Description: Microsomes prepared from human liver were used to extract cytochrome P450 2E1 (CYP2E1) and CYP2E1 inhibitors were screened from 39 Chinese medicine guiding drugs and 10 excipients. Chlorzoxazone hydroxylation is a reaction catalyzed primarily by CYP2E1 in liver. The extracted human liver microsomal cytochrome P450 2E1 (CYP2E1) was mixed with its substrate, Chlorzoxazone, and test sample was then added Inhibition of CYP2E1 activity was calculated by measuring CYP2E1 standard metabolite, 6-OH-CZX (6-Hydroxy-Chlorzoxazone), and compared with control 6-OH-CZX.
After incubation, 16 mM Chlorzoxazone and test samples were added to experimental groups; methanol:sterilized water at 1:1 ratio was added to control groups and DDTC was added to positive control groups,
Finally, cofactor 1 mM NADP^+, 10 mM G6P and 2 IU G6PD were added and reaction mixtures were transferred to pre-incubation 37° C. water bath for 1 mM and activity was measured after 30 min of reaction
At the end of reaction, 500 μl acetonitrile was added to stop the reaction followed by 5 g/mL 4-hydroxy-tobutamide after 1 mM incubation. The mixture was then centrifuged and 20 L of supernatant was diluted ten times with methanol/sterilized water and 5 L was used for LC/MS/MS analysis. […] The inhibition of CYP2E1 was then calculated by the following equation:

The subject of the next data set is amidase. Put plainly: Mouse liver microsomal amidase, isoniazid to isonicotinic acid. The data set is classed as biochemical. From the text:
Mouse liver microsomes were used as the source of amidase, and isoniazid was used as the amidase metabolism drugs. quantitative isoniazid was catalyzed into metabolites isonicotinic acid (INA) by amidase, and was used as the index for measurement of the amidase activity for establishment of the platform for screening in vitro amidase activity inhibitors. The HPLC system includes a Shimadzu the LC-LOAD pump, 1 Shimadzu system control and a Shimadzu autosampler (Shimadzu Scientific Instrument, Japan). A C18 column (particle size 5 μm, inner diameter of 50×4.6 mm, 25 cm) containing 70% methanol and 30% ammonium formate (50 mM, pH=2.5) of the mobile phase for HPLC separation, and the experimental steps are outlined as follows:
(2) An aliquot of 150 μL mouse liver microsomal solution was added to 100 μL isoniazid solution in 35 μL 67 mM potassium phosphate buffer solution ([…], pH=7) with a final concentration at 3 mM, and then mixed thoroughly with 15 μL amidase inhibitor (deionized water was added in the control group). (3) Incubation at 37° C. water bath for 30 minutes. (4) An aliquot of 300 μL acetonitrile (ACN) was added and mixed thoroughly, and incubated for 6 minutes. (5) An aliquot of 30 μL perchloric acid was then mixed and incubated for 6 minutes. (6) The mixture was centrifuged at 13000 g for 6 minutes. (7) After centrifugation, 100 μL of the supernatant was injected into HPLC. (8) Methanol ammonium formate (50 mM, pH=2.5)=70:30 (V/V) was selected as the mobile phase, and the flow rate was controlled at […] and detected at 270 nm UV. […] The amidase inhibition % was then calculated using the following formula: […]

Each structure is given as a SMILES string.

human liver microsomal cytochrome P450 2E1 (CYP2E1), sequence (P05181 whole entry): as above

With `O=C1C[C@@H](c2ccc(O)cc2)Oc2cc(O)cc(O)c21` [Narigenin], the “Minimum Effective Dose” value in data set [1] and in data set [2] was 9 mg throughout.

For the molecule `O=c1c(-c2ccc(O)cc2)coc2c([C@@H]3O[C@H](CO)[C@@H](O)[C@H](O)[C@H]3O)c(O)ccc12` [Puerarin], the “Minimum Effective Dose” value in data set [1] is on record as 23 mg. Also, the values for the Amidase inhibition in the data set on amidase (1 uM), with amidase (10 uM) and with amidase (100 uM) were 40.9 ± 3.6%, 33.0 ± 3.3% and 17.9 ± 7.2%, respectively.

With `COc1ccc([C@@H]2CC(=O)c3c(O)cc(O)cc3O2)cc1O` [Hesperetin], the results for the “Minimum Effective Dose” value in data set [1] and in data set [2] were 33 mg and 17 mg, respectively. Also, the Amidase inhibition was −40.5 ± 24.8% in the data set with amidase (1 uM), 5.4 ± 2.5% in the data set with amidase (10 uM) and 19.0 ± 3.6% in the data set on amidase (100 uM).

For `O=c1ccc2ccc(O)cc2o1` [Umbelliferone], the “Minimum Effective Dose” value in data set [1] worked out at 9 mg. For the same molecule, the Amidase inhibition with amidase (1 uM) is given as 24.1 ± 11.6%; in the data set on amidase (10 uM), −1.0 ± 13.2%; with amidase (100 uM), 33.5 ± 8.2%.

Take `CC(Cc1ccc(O)c(O)c1)C(C)Cc1ccc(O)c(O)c1` (centres unmarked) [Nordihydroguaiaretic acid]: the “Minimum Effective Dose” value in data set [1] and in data set [2] was 17 mg each time.

As to `O=C(CCc1ccc(O)cc1)c1c(O)cc(O)cc1O` [Phloretin], the “Minimum Effective Dose” value in data set [1] and in data set [2] was 15 mg in each case. Also, the Amidase inhibition in the data set with amidase (1 uM) is reported as 16.5 ± 14.3%; in the data set with amidase (10 uM), 9.8 ± 5.4%; in the data set with amidase (100 uM), 29.9 ± 8.1%.

Consider `O=C(CCc1ccc(O)cc1)c1c(O)cc(O)cc1O[C@@H]1O[C@H](CO)[C@@H](O)[C@H](O)[C@H]1O` [Phloridzin], for which, in data set [1], the “Minimum Effective Dose” value is given as 24 mg.

For `Oc1cc(O)c2c(c1)O[C@H](c1ccc(O)c(O)c1)[C@@H](O)C2` [(+)-Catechin], the entries for the “Inhibition of CYP 2E1” value in data set [1] (16.5 μM) and in data set [1] (66 μM) were 41.53% and 16.45%, respectively. Moreover, the “Minimum Effective Dose” value in data set [1] is reported as 16 mg. Besides, the Amidase inhibition was −2.1 ± 1.1% in the data set on amidase (1 uM), −11.8 ± 20.2% in the data set with amidase (10 uM) and 1.3 ± 6.3% in the data set with amidase (100 uM).

As to `O=C(O)c1ccc(O)c(O)c1` [Protocatechuic acid], the “Minimum Effective Dose” value in data set [1] turned out to be 8 mg. The Amidase inhibition came out at 11.5 ± 4.0% with amidase (1 uM), 10.9 ± 2.0% in the data set on amidase (10 uM) and 15.7 ± 8.1% in the data set with amidase (100 uM).

With `CCCCCCCCCCCC1=C(O)C(=O)C=C(O)C1=O` [Embelin], in data set [1], the “Minimum Effective Dose” value was determined as 16 mg.

As for `O=c1cc(-c2ccccc2)oc2ccc3ccccc3c12` [β-naphthoflavone], the “Inhibition of CYP 2E1” value in data set [1] (16.5 μM) came out at 6.52%; in data set [1] (66 μM), 15.40%. Moreover, in data set [1], the “Minimum Effective Dose” value came out at 15 mg.

In the case of `O=C1c2c(O)cc(O)cc2O[C@H](c2ccc(O)c(O)c2)[C@H]1O` [(+)-Taxifolin], the “Minimum Effective Dose” value in data set [1] is on record as 17 mg. Moreover, the Amidase inhibition with amidase (1 uM) is recorded as 36.8 ± 11.5%; with amidase (10 uM), 32.2 ± 5.8%; in the data set with amidase (100 uM) it was 36.4 ± 3.4%.

On to `CCCCC[C@H](O)CC(=O)CCc1ccc(O)c(OC)c1` [6-Gingerol], for which the “Minimum Effective Dose” value in data set [1] and in data set [2] was 16 mg in each case. Further, the Amidase inhibition was −8.2 ± 9.0% in the data set with amidase (1 uM), 0.5 ± 0.7% with amidase (10 uM) and 22.6 ± 3.4% with amidase (100 uM).

As to `Oc1cc(O)c2c(c1)O[C@H](c1ccc(O)c(O)c1)[C@H](O)C2` [(−)-Epicatechin], the “Inhibition of CYP 2E1” value in data set [1] (16.5 μM) was 18.27%; in data set [1] (66 μM), 2.57%. In addition, in data set [1], the “Minimum Effective Dose” value came to 16 mg. Besides, the Amidase inhibition in the data set on amidase (1 uM) is −25.8 ± 6.2%; with amidase (10 uM), −4.8 ± 10.5%; in the data set with amidase (100 uM) it was 3.6 ± 4.3%.

For `O=C(O)/C=C/c1ccccc1` [trans-Cinnamic acid], in data set [1], the “Minimum Effective Dose” value was found to be 8 mg. Also, the Amidase inhibition with amidase (1 uM) is reported as −11.9 ± 2.3%; with amidase (10 uM), −1.4 ± 0.6%; in the data set on amidase (100 uM) it was 12.6 ± 1.7%.

`O=C(O)c1cc(O)c(O)c(O)c1` [gallic acid]: the “Minimum Effective Dose” value in data set [1] and in data set [2] was 9 mg throughout. Also, the Amidase inhibition in the data set on amidase (1 uM) is reported as 12.0 ± 5.5%; in the data set with amidase (10 uM) it was 20.0 ± 5.1%; in the data set on amidase (100 uM) it was −20.2 ± 26.5%.

Take `COc1c(O)cc2oc(Oc3ccc(O)cc3)cc(=O)c2c1O` [Capillarisin]: the “Inhibition of CYP 2E1” value in data set [1] (16.5 μM) came out at 49.05%; in data set [1] (66 μM), 76.12%; in data set [2] (16.5 μM), 32.89 ± 2.46%; in data set [2] (33 μM), 46.22 ± 2.65%; in data set [2] (66 μM) it was 57.31 ± 1.31%. Also, the “Minimum Effective Dose” value in data set [1] and in data set [2] was 17 mg each time. Also, the Amidase inhibition is −4.1 ± 8.1% with amidase (1 uM), 18.2 ± 3.7% with amidase (10 uM) and 45.7 ± 4.2% in the data set on amidase (100 uM).
